Consider three compounds from ChEMBL document CHEMBL5625243, “Computational methods to analyze and predict the binding mode of inhibitors targeting both human and mushroom tyrosinase” (Eur J Med Chem, 2023).

Activity calls are given as the source filed them. No cut-off for these calls is given here.

In experiment [1] the target is Mushroom tyrosinase (Agaricus bisporus) (UniProt O42713+Q00024+C7FF04+C7FF05). Briefly: Binding affinity to mushroom tyrosinase assessed as gibbs free energy change by MM-GBSA method. In kind it is protein assay.
The target of experiment [2] is T1, Tyrosinase (Homo sapiens) (UniProt P14679).
T1 sequence (whole entry): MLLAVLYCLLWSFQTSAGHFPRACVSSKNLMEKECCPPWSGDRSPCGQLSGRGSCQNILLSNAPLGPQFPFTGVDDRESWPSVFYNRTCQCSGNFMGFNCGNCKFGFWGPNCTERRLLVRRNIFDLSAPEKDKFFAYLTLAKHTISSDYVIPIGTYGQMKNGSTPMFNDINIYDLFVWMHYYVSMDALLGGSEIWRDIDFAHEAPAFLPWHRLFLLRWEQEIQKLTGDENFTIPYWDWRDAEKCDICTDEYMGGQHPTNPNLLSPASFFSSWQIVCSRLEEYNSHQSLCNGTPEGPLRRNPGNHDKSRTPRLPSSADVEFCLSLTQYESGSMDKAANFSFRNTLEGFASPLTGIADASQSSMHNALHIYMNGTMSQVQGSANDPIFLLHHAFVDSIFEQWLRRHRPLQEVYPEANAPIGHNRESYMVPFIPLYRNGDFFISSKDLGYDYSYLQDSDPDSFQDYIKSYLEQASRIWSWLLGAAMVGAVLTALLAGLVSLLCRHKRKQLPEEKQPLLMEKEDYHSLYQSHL
Kind of experiment: Binding affinity to human Tyrosinase assessed as gibbs free energy change by MM-GBSA method.

For experiment [3], the target named is T2, Tyrosinase (Homo sapiens, UniProt P14679).
T2 sequence (P14679 whole entry): T1 sequence (whole entry)
Kind of experiment: Binding affinity to human tyrosinase using l-DOPA as substrate assessed as inhibition constant by Michaelis-Menten plot analysis.

Experiment [4] addresses T2, Tyrosinase. Briefly: Inhibition of human tyrosinase using L-DOPA as substrate by spectrophotometer analysis.
For experiment [5], the target named is T3, Mushroom tyrosinase (Agaricus bisporus, UniProt O42713+Q00024+C7FF04+C7FF05). Briefly: Inhibition of mushroom tyrosinase using L-DOPA as substrate by spectrophotometer analysis. The format is protein assay.
Experiment [6] has as its target T1, Tyrosinase (Homo sapiens). Kind of experiment: Competitive inhibition of human tyrosinase using L-DOPA substrate upto 2.08 uM by Lineweaver-Burk plot analysis.
The target of experiment [7] is T3, Mushroom tyrosinase. Briefly: Inhibition of mushroom tyrosinase using L-DOPA as substrate. In kind it is protein assay.

As to `CC(C)C(=O)Nc1nc(-c2ccc(O)cc2O)cs1`, the deltaG in experiment [1] is 3.34 kcal/mol; in experiment [2], -14.8 kcal/mol. The Ki at Tyrosinase [3] amounted to 0.92 µM. In addition, the IC50 on Tyrosinase [4] turned out to be 3.8 µM; against Mushroom tyrosinase [5], 108 µM.
As to `COc1ccccc1C(=O)N1CCN(c2ccc(O)cc2)CC1`, in experiment [6], the inhibition result was “Active”. For the same compound, the Ki at Tyrosinase [3] is 1.02 µM. Moreover, the half-maximal inhibitory concentration (IC50) is 3.52 µM against Mushroom tyrosinase [7] and 5.4 µM on Tyrosinase [4].
Turning to `O=C(CN1CCC(Cc2ccccc2)CC1)N1CCN(c2ccc(O)cc2)CC1`, the values for the deltaG in experiment [1] and in experiment [2] were -4.54 kcal/mol and 0 kcal/mol, respectively. Moreover, at Tyrosinase [4], it took 1100 µM to reach half-maximal inhibition (IC50).

As usually defined, the Ki is the dissociation constant of the complex between target and ligand, obtained from inhibition or displacement. In general, IC50 refers to the concentration that inhibits the measured activity by half. Higher therefore signals weaker potency.
